Calls of active or inactive are those of the source. Bounds are passed on as bounds.

Test [1] deals with T1, Sentrin-specific protease 6 (Homo sapiens, UniProt Q9GZR1).
T1 sequence (Q9GZR1 whole entry): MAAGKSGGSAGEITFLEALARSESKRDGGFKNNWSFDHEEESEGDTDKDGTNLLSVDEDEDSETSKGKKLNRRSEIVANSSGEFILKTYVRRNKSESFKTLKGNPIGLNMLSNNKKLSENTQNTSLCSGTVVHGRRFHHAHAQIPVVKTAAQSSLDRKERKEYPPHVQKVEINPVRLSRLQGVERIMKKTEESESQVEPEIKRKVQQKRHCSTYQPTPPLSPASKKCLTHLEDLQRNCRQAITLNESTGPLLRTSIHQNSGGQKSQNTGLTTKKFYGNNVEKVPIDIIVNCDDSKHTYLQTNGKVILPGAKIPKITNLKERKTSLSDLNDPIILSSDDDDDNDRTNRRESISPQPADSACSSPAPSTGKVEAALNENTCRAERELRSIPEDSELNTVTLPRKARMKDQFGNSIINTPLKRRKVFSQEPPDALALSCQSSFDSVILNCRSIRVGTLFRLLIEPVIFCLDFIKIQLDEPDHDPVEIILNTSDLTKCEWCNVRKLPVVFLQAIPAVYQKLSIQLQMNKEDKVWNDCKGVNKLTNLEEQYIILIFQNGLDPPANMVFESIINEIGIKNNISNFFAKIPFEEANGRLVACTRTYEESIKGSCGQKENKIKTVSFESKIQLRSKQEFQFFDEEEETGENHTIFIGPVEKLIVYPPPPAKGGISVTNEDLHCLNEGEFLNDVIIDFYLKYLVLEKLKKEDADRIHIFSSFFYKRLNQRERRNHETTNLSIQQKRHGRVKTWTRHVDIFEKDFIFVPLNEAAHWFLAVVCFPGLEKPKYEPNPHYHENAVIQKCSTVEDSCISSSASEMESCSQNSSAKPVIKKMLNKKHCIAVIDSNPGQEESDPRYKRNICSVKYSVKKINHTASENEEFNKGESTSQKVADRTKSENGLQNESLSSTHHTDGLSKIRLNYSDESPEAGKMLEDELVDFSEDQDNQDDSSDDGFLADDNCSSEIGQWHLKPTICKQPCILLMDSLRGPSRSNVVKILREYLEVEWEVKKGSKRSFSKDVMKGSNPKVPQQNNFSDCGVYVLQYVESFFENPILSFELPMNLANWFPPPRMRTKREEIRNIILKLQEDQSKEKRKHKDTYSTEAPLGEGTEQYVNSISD
In kind it is functional.

Test [2] deals with T2, Sentrin-specific protease 8 (Homo sapiens, UniProt Q96LD8).
T2 sequence (Q96LD8 whole entry): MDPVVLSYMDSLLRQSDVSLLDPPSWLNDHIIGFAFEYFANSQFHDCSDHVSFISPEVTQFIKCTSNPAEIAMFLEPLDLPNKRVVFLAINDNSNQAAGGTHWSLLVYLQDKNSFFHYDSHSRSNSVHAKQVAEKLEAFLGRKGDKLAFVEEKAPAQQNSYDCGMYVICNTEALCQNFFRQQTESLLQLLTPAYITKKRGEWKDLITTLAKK
The test is classed as functional.

The subject of a further test is INS1. Briefly: INS-1E survival protection against cytokine death – cell-based, luminescence, retest, dose response (AID 449756).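 Also: cell death triggered by IL-1 beta plus TNF-alpha plus IFN-gamma mixture; protective hits raise ATP signal compared with cytokine alone wells.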 In kind it is functional. As to conditions: Rattus norvegicus.
The subject of a further test is BJ. The experiment in a line: BJ-TERT-LT-ST fibroblast viability loss – cell-based, RAS-independent, luminescence, dose response (AID 1935).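 Also: BJ fibroblasts immortalized with TERT plus LT and ST oncogenes.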 As to conditions: Homo sapiens. In kind it is functional.
For test [3], the target named is T3, Tyrosyl-DNA phosphodiesterase 2 (Homo sapiens, UniProt O95551).
T3 sequence (O95551 whole entry): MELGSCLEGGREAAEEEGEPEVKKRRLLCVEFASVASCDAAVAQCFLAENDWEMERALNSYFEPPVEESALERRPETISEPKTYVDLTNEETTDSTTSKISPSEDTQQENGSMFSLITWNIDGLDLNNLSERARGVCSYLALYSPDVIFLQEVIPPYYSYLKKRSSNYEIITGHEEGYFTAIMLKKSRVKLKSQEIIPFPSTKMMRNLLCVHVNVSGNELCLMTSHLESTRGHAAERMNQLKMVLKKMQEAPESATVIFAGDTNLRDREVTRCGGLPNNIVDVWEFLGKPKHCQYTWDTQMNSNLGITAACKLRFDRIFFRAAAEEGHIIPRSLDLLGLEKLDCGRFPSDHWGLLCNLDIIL
Briefly: potency against TDP2 phosphodiesterase activity – biochemical, epi absorbance, IC50, dose response (AID 743297).

Test [4] can be described thus: fluconazole-exposed Candida albicans growth modulators – fluorescence, retest, confirmation (AID 2467). In kind it is functional, cell-based.
Test [5] in a line: Trypanosoma cruzi growth suppression in host cells – NIH3T3 host cells, beta-gal luminescence, confirmation (AID 2044).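 Also: intracellular parasites grown in NIH/3T3 mouse fibroblasts as host cells; luminescent beta-galactosidase reporter signal from transgenic T. cruzi replicating inside host cells; inhibitors lower the luminescence signal.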 In kind it is functional, cell-based.
Test [6] is described as follows: NIH3T3 cell viability loss – ATP luminescence, mouse fibroblasts, counter-screen, dose response (AID 2010).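 Also: cells exposed to compound for about 90 hours before reading.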 In kind it is functional, cell-based.
For test [7], the target named is T4, Heat shock factor protein 1 (Mus musculus, UniProt P38532).
T4 sequence (P38532 whole entry): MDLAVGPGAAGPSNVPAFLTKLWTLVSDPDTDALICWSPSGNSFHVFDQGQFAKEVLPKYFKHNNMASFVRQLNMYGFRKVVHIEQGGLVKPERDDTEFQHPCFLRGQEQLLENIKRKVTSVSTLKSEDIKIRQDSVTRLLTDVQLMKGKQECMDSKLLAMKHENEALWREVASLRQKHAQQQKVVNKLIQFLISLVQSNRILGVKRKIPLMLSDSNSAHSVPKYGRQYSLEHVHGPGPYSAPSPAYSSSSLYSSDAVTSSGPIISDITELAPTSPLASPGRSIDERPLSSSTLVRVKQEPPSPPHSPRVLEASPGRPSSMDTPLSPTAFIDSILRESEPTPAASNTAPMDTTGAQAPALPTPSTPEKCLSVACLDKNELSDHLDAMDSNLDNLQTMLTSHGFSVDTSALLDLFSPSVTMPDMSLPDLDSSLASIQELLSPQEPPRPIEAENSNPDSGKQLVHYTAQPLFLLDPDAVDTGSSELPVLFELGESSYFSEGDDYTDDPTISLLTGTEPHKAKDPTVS
Briefly: enhancement of HSF1-driven luciferase signal – cell-based, NIH3T3, luminescence, dose retest, confirmation (AID 435004).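 Also: stress induced by proteasome inhibitor MG132 added 30 min after compound; luciferase reporter driven by HSF1 response element in NIH3T3 cells; actives raise luminescence as potentiators of the MG132 stress response.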 In kind it is functional.

Test [8] is described as follows: reduction of Shn3 3'UTR-driven luciferase in osteoblasts – cell-based, Clone20 osteoblasts, firefly luciferase, cherry-picked, dose response (AID 624132).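 Also: firefly luciferase luminescence from reporter carrying the Shn3 3'UTR in osteoblasts.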 In kind it is functional.
The next test concerns the target Activin receptor type-1 (Homo sapiens, UniProt Q04771). The experiment in a line: Navigating the Kinome. Panel member name: ACVR1. In kind it is functional.
The target in test [9] is Serine/threonine-protein kinase PAK 4 (Homo sapiens, UniProt O96013). In kind it is functional.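 Also: value obtained within a kinome profiling panel in which PAK4 was one of the panel members.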
Sequence of Serine/threonine-protein kinase PAK 4 (O96013 whole entry): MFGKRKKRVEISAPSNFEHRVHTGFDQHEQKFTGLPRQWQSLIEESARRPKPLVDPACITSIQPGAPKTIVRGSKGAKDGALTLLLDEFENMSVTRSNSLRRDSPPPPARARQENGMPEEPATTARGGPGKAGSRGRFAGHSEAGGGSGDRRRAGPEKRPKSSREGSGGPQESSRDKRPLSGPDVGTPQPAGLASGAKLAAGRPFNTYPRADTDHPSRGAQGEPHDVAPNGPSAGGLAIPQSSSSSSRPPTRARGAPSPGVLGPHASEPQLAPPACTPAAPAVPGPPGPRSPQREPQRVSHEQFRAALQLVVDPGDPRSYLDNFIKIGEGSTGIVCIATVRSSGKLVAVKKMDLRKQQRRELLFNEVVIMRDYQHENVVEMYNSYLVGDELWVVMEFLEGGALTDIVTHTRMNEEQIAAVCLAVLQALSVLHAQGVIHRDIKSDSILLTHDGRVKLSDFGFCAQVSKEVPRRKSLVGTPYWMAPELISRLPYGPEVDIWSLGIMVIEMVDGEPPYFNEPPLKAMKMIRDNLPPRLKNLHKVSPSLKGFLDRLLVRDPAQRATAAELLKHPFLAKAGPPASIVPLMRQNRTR
The target of test [10] is MAP/microtubule affinity-regulating kinase 3 (Homo sapiens, UniProt P27448). In kind it is functional.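 Also: MARK3 affinity measured as one member of a kinome panel.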
Sequence of MAP/microtubule affinity-regulating kinase 3 (P27448 whole entry): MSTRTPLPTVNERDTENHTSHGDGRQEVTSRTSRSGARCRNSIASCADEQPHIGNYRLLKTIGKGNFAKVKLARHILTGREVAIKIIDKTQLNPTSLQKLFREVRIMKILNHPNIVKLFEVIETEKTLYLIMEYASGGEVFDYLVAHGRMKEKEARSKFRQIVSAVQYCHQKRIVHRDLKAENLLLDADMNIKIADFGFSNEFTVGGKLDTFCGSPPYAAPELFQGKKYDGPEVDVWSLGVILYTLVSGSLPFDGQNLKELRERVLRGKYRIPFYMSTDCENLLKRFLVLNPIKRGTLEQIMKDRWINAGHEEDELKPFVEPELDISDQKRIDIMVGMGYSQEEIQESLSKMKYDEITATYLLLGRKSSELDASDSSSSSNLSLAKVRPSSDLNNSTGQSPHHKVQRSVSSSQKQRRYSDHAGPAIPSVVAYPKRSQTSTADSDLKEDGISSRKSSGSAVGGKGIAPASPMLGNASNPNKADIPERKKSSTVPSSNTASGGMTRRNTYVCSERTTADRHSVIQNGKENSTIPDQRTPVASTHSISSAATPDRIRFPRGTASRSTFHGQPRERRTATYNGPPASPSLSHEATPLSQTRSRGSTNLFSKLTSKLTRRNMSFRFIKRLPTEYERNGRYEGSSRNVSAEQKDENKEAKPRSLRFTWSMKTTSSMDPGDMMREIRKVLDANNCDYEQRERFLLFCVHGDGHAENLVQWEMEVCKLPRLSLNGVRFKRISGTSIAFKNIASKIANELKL
For test [11], the target named is Mitogen-activated protein kinase kinase kinase kinase 2 (Homo sapiens, UniProt Q12851). In kind it is functional.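 Also: measured as one member of a kinome-wide kinase panel, with MAP4K2 as the panel entry.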
Sequence of Mitogen-activated protein kinase kinase kinase kinase 2 (Q12851 whole entry): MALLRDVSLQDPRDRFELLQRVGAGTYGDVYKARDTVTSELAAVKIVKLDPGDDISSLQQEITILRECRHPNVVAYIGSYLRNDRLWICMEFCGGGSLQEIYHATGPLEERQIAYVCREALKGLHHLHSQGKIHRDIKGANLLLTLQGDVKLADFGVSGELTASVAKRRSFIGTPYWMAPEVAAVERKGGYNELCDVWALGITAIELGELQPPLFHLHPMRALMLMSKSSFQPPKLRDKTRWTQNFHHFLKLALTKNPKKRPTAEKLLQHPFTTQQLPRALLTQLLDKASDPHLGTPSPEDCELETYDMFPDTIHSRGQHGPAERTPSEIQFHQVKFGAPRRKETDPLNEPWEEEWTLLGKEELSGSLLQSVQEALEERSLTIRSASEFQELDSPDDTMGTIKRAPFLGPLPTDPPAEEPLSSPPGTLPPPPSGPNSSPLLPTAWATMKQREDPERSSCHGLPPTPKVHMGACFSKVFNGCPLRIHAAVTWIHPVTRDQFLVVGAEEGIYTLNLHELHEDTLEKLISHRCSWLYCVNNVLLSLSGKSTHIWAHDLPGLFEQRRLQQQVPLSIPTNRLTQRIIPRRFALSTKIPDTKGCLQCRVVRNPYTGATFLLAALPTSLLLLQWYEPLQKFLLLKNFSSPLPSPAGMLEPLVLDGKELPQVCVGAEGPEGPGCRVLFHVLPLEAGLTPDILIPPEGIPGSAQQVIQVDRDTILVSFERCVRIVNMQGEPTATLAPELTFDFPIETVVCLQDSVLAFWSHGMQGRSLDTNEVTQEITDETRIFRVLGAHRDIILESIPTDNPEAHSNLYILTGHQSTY
Test [12] deals with Platelet-derived growth factor receptor alpha (Homo sapiens, UniProt P16234). Briefly: Navigating the Kinome. Panel member name: PDGFRA. The test is classed as functional.
Sequence of Platelet-derived growth factor receptor alpha (P16234 whole entry): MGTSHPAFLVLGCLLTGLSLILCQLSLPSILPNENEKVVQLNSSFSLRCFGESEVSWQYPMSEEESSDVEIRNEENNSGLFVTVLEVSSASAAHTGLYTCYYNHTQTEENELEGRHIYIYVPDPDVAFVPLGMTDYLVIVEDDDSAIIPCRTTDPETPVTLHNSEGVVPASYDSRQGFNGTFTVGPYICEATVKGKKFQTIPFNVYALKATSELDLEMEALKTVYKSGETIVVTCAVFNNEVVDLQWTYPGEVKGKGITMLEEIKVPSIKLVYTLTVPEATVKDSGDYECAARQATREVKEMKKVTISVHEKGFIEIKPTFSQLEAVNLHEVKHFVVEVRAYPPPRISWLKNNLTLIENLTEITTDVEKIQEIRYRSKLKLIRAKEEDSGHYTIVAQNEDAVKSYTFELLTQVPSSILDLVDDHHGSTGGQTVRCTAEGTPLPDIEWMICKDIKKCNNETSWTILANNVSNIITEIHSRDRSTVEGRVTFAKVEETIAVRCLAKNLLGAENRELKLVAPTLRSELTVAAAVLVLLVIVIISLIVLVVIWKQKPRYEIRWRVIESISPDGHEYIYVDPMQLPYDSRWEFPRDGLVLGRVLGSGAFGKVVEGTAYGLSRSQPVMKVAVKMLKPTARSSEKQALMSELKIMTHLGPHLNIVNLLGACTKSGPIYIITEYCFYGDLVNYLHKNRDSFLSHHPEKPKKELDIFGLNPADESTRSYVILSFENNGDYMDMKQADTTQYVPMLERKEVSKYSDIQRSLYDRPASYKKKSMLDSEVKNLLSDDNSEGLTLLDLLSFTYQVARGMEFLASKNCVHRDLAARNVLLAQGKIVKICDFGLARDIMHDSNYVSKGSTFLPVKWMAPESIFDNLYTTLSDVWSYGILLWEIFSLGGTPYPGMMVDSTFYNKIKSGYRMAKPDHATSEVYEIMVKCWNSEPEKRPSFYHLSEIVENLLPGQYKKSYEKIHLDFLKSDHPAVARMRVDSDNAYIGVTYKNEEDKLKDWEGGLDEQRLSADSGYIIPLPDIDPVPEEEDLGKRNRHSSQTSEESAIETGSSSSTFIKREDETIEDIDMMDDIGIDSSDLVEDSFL
Test [13] concerns the target Dual specificity mitogen-activated protein kinase kinase 2 (Homo sapiens, UniProt P36507). The experiment in a line: Navigating the Kinome. Panel member name: MAP2K2. The test is classed as functional.

Sequence of Dual specificity mitogen-activated protein kinase kinase 2 (P36507 whole entry): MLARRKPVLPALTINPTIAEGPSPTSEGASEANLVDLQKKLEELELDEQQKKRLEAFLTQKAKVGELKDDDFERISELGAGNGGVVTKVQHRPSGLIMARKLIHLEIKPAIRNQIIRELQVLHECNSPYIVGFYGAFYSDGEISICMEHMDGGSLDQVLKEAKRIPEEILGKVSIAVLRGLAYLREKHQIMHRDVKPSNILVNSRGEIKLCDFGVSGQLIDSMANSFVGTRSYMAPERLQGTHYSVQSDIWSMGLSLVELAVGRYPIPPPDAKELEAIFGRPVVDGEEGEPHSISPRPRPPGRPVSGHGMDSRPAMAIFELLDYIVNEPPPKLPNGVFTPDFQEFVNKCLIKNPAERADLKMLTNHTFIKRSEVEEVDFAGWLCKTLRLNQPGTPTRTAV
Sequence of Activin receptor type-1 (Q04771 whole entry): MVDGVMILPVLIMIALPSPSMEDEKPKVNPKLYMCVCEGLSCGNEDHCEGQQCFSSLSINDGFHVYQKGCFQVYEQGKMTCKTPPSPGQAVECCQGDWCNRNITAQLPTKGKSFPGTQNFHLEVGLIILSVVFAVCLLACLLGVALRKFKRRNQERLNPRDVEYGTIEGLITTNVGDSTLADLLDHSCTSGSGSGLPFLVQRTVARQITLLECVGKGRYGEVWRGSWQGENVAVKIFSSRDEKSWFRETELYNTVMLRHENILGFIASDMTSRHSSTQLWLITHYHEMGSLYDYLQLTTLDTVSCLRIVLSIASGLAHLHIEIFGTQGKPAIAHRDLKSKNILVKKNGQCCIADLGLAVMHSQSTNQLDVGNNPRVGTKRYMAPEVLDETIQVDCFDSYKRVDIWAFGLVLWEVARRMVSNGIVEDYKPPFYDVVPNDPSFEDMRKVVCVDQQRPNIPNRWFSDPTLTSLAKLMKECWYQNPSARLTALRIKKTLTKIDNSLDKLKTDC

In the case of `CCc1cc[n+](C2=C([N-]S(=O)(=O)c3cccs3)C(=O)c3ccccc3C2=O)cc1`, the IC50 in [1] was 3570 nM (active); in test [2] it was 8480 nM (active). In addition, in the test with INS1, the half-maximal activity concentration (AC50) is 2760 nM (active).

As for `O=C(NC1=C(NC2CCS(=O)(=O)C2)C(=O)c2ccccc2C1=O)c1ccccc1` (stereo unspecified), in the test on BJ, the concentration giving a half-maximal response (EC50) is > 75000 nM (not active). Moreover, the IC50 in [3] is 28300 nM (inactive).

`CCCC(=O)NC(c1ccc(N(C)C)cc1)c1ccc2cccnc2c1O` (stereo unspecified): the EC50 was 626 nM (active) in test [4]; 480 nM (active) in [5]; 729 nM (active) in [6]; 2720 nM (active) in the test on BJ; > 260000 nM (inactive) in test [7]. The concentration at half-maximal activity (AC50) is 598 nM (active) with INS1 and 916 nM (active) in test [8].

Take `O=C1NC(=O)C(c2c[nH]c3ccccc23)=C1c1nc(N2CCNCC2)nc2ccccc12`: the Ki on Activin receptor type-1 is > 3980 nM (inactive); in test [9], 2000 nM (active); in test [10] it was 398 nM (active); in test [11], 1000 nM (active); in test [12], > 2510 nM (inactive); in test [13] it was 1260 nM (active).

Turning to `COc1ccccc1N(/N=C1\Sc2ccccc2C1=O)C(C)=O`, the IC50 in test [1] is 4280 nM (active); in test [2], 5390 nM (active); in test [3] it was 20000 nM (inactive).

The values above are taken from ChEMBL document CHEMBL1201862, “PubChem BioAssay data set” (2004).
